In patent US7935482B2, “Gene expression profiling for identification monitoring and treatment of rheumatoid arthritis” (Source Precision Medicine, Inc., priority 2005, dated 2011):

What was measured:
[1] = system: Inflammation Gene Expression Panel (inflammation index); assay: Inflammation index from whole-blood Gene Expression Profile of RA patients under therapy; format: in vivo, human; settings: for inflammation index compared to normal: clinically stable RA patients, 10 per treatment group, FIGS. 9-11, Remicade: all but one of the patients
Source text: The values Ci and P(i) may be determined in a number of ways, so that the index I is informative of the pertinent biological condition. One way is to apply statistical techniques, such as latent class modeling, to the profile data sets to correlate clinical data or experimentally derived data, or other data pertinent to the biological condition. In this connection, for example, may be employed the software from Statistical Innovations, Belmont, Mass., called Latent Gold®. Alternatively, other simpler modeling techniques may be employed in a manner known in the art. The index function for inflammation may be constructed, for example, in a manner that a greater degree of inflammation (as determined by the profile data set for the Inflammation Gene Expression Panel included in Tables 1 and 2) correlates with a large value of the index function. In a simple embodiment, therefore, each P(i) may be +1 or −1, depending on whether the constituent increases or decreases with increasing inflammation. As discussed in further detail below, a meaningful inflammation index that is proportional to the expression, referred to herein as IR-105, was constructed as follows: ¼{IL1A}+¼{IL1B}+¼{TNF}+¼{INFG}[…],
FIG. 4A further illustrates the consistency of inflammatory gene expression, illustrated here with respect to 7 loci of (of the Inflammation Gene Expression Panel included in Tables 1 and 2), in a set of 44 normal, undiagnosed blood donors. For each individual locus is shown the range of values lying within ±2 standard deviations of the mean expression value, which corresponds to 95% of a normally distributed population. Notwithstanding the great width of the confidence interval (95%), the measured gene expression value (ΔCt)—remarkably—still lies within 10% of the mean, regardless of the expression level involved. As described in further detail below, for a given biological condition an index can be constructed to provide a measurement of the condition. This is possible as a result of the conjunction of two circumstances: (i) there is a remarkable consistency of Gene Expression Profiles with respect to a biological condition across a population and (ii) there can be employed procedures that provide substantially reproducible measurement of constituents in a Gene Expression Panel giving rise to a Gene Expression Profile, under measurement conditions wherein specificity and efficiencies of amplification for all constituents of the panel are substantially similar and which therefore provides a measurement of a biological condition. Accordingly, a function of the expression values of representative constituent loci of FIG. 4A is here used to generate an inflammation index value, which is normalized so that a reading of 1 corresponds to constituent expression values of healthy subjects, as shown in the right-hand portion of FIG. 4A.
FIG. 4C illustrates the use of the same index as FIG. 4B, where the inflammation median for a normal population of subjects has been set to zero and both normal and diseased subjects are plotted in standard deviation units relative to that median. An inflammation index value was determined for each member of a normal, undiagnosed population of 70 individuals (black bars). The resulting distribution of index values, shown in FIG. 4C, can be seen to approximate closely a normal distribution. Similarly, index values were calculated for individuals from two diseased population groups, (1) rheumatoid arthritis patients treated with methotrexate (MTX) who are about to change therapy to more efficacious drugs (e.g., TNF inhibitors)(hatched bars), and (2) rheumatoid arthritis patients treated with disease modifying anti-rheumatoid drugs (DMARDS) other than MTX, who are about to change therapy to more efficacious drugs (e.g., MTX). […] This figure thus illustrates the utility of an index to derived from Gene Expression Profile data to evaluate disease status and to provide an objective and quantifiable treatment objective. […]

[2] = system: Inflammation Gene Expression Panel; assay: Quantitative RT-PCR gene expression in whole blood of treated RA patients relative to normal mean; format: in vivo, human; settings: 22 patients pooled
Source text: For measuring the amount of a particular RNA in a sample, methods known to one of ordinary skill in the art were used to extract and quantify transcribed RNA from a sample with respect to a constituent of a Gene Expression Panel. (See detailed protocols below. Also see PCT application publication number WO 98/24935 herein incorporated by reference for RNA analysis protocols). Briefly, RNA is extracted from a sample such as a tissue, body fluid, or culture medium in which a population of cells of a subject might be growing. For example, cells may be lysed and RNA eluted in a suitable solution in which to conduct a DNAse reaction. First strand synthesis may be performed using a reverse transcriptase. Gene amplification, more specifically quantitative PCR assays, can then be conducted and the gene of interest calibrated against an internal marker such as 18S rRNA (Hirayama et al., Blood 92, 1998: 46-52). Any other endogenous marker can be used, such as 28S-25S rRNA and 5S rRNA. Samples are measured in multiple replicates, for example, 3 replicates. In an embodiment of the invention, quantitative PCR is performed using amplification, reporting agents and instruments such as those supplied commercially by Applied Biosystems (Foster City, Calif.). Given a defined efficiency of amplification of target transcripts, the point (e.g., cycle number) that signal from amplified target template is detectable may be directly related to the amount of specific message transcript in the measured sample. Similarly, other quantifiable signals such as fluorescence, enzyme activity, disintegrations per minute, absorbance, etc., when correlated to a known concentration of target templates (e.g., a reference standard curve) or normalized to a standard with limited variability can be used to quantify the number of target templates in an unknown sample.
As part of a larger international study involving patients with rheumatoid arthritis, the subject was followed over a twelve-week period. The subject was enrolled in the study because of a failure to respond to conservative drug therapy for rheumatoid arthritis and a plan to change therapy and begin immediate treatment with a TNF-inhibiting compound. Blood was drawn from the subject prior to initiation of new therapy (visit 1). After initiation of new TNF-inhibiting therapy, blood was drawn at 4 weeks post change in therapy (visit 2), 8 weeks (visit 3), and 12 weeks (visit 4) following the start of new therapy. Blood was collected using the PAXgene Blood RNA System™, held at room temperature for two hours and then frozen at −30° C.
Frozen samples were shipped to the central laboratory at Source Precision Medicine, the assignee herein, in Boulder, Colo. for determination of expression levels of genes in the 48-gene inflammation gene expression panel included in Tables 1 and 2. The blood samples were thawed and RNA extracted according to the manufacturer's recommended procedure. RNA was converted to cDNA and the level of expression of the 48 inflammatory genes was determined. Expression results are shown for 11 of the 48 loci in FIG. 3. […] Similarly, gene expression levels at each of the subsequent physician visits for each locus are compared to the same normal average value. […] In each visit following the change in the therapy, the level of inflammatory gene expression for 10 of the 11 loci is closer to the cognate locus average previously determined for the normal (i.e., undiagnosed, healthy) patient set. […]

[3] = Clinical assessment of RA patients during therapy (DAS, SJC, TJ, MDAD, HAQ); format: in vivo, human; settings: 22 RA patients pooled over both regimens, FIG. 23; for Disease Activity Score (DAS): baseline 6.51
[4] = human, in vivo; cited from earlier work
[5] = end of the study, 12 genes examined, FIG. 17

CN(Cc1cnc2nc(N)nc(N)c2n1)c1ccc(C(=O)N[C@@H](CCC(=O)O)C(=O)O)cc1 [methotrexate]
distribution of inflammation index values in comparison to the normal distribution ([1]; RA patients about to change therapy to more efficacious drugs, FIG. 4C): skewed upward | inflammation index compared to normal [1]: elevated compared to normal

anakinra [kineret]
number of genes still over-expressed to some extent [2, 5]: 7 | number of genes transitioned to the under-expressed category [2, 5]: 4 | expression of PTGS2 (COX2) versus normal ([2]; end of the study, FIG. 17): not statistically significantly different from normal | values of CD19 expression versus normals ([2]; from the start of the study until the end, FIG. 17): all under-expressed | relative expression of the genes overexpressed at start (11 of 12 genes) versus normals ([2]; week 4, normals n=69, FIG. 17): still over-expressed at week 4 but less so | joint counts, MD assessment and patient self-score over the course of the study [3]: all went down | Disease Activity Score (DAS) ([3]; after 4 weeks): 5.35 | Disease Activity Score (DAS) ([3]; end of the study): 4.88

etanercept [Enbrel]
patients with inflammation index in the normal range ([1]; 10 clinically stable RA patients, FIG. 10): 80% | inflammation index compared to normal [1]: comes much closer to normal

infliximab [Remicade]
abnormally low inflammation index in two of the patients ([1]; 10 clinically stable RA patients, FIG. 11): suggesting an immunosuppressive response | inflammation index compared to normal [1]: at or below normal | association with serious infections [4]: associated with serious infections in some subjects
